Tests used:
Test in all cases: relative viability (nuclei count vs DMSO), 5 days (fraction); higher = more cells survive
Shikonin + Bortezomib = compound: CC(C)=CC[C@@H](O)C1=CC(=O)c2c(O)ccc(O)c2C1=O [Shikonin] + CC(C)C[C@H](NC(=O)[C@H](Cc1ccccc1)NC(=O)c1cnccn1)B(O)O [Bortezomib] (partner 0.002 µM)
Method in brief: (§1)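 The day after seeding in 1536-well plates, lung cancer cell lines were treated by pin tool with a single drug, or with a fixed anchor-drug dose together with five library-drug doses (not always all listed) in √10 steps. After 5 days, a combined fix-and-stain solution (final 0.05% Triton X-100, 1% formaldehyde, 1 ug/ml Hoechst) was added. Nuclei counted on 4× images gave relative viability as treated counts over vehicle counts, reported as the median of duplicate plates.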

Shikonin + Dasatinib = compound: CC(C)=CC[C@@H](O)C1=CC(=O)c2c(O)ccc(O)c2C1=O [Shikonin] + Cc1nc(Nc2ncc(C(=O)Nc3c(C)cccc3Cl)s2)cc(N2CCN(CCO)CC2)n1 [Dasatinib] (partner 0.075 µM)
Method in brief: as §1

[1] = compound: CC(C)N(CCCNC(=O)Nc1ccc(C(C)(C)C)cc1)C[C@H]1O[C@@H](n2ccc3c(N)ncnc32)[C@H](O)[C@@H]1O + CC(=O)Nc1cccc(-n2c(=O)n(C3CC3)c(=O)c3c(Nc4ccc(I)cc4F)n(C)c(=O)c(C)c32)c1 [Trametinib] (partner 0.02 µM)
Method in brief: as §1

[2] = compound: CC(C)N(CCCNC(=O)Nc1ccc(C(C)(C)C)cc1)C[C@H]1O[C@@H](n2ccc3c(N)ncnc32)[C@H](O)[C@@H]1O + COc1cc2c(Oc3ccc(NC(=O)C4(C(=O)Nc5ccc(F)cc5)CC4)cc3F)ccnc2cc1OCCCN1CCOCC1 [Foretinib] (partner 0.25 µM)
Method in brief: as §1

Row | Cell Line | relative viability (Shikonin + Bortezomib; first compound 0.01 µM) | relative viability (Shikonin + Bortezomib; first compound 0.1 µM) | relative viability (Shikonin + Bortezomib; first compound 0.3162 µM) | relative viability (Shikonin + Bortezomib; first compound 1 µM) | relative viability (Shikonin + Dasatinib; first compound 0.01 µM) | relative viability (Shikonin + Dasatinib; first compound 0.1 µM) | relative viability (Shikonin + Dasatinib; first compound 0.3162 µM) | relative viability (Shikonin + Dasatinib; first compound 1 µM) | relative viability ([1]; first compound 0.08 µM) | relative viability ([1]; first compound 0.253 µM) | relative viability ([1]; first compound 0.8 µM) | relative viability ([1]; first compound 2.53 µM) | relative viability ([1]; first compound 8 µM) | relative viability ([2]; first compound 0.08 µM) | relative viability ([2]; first compound 0.253 µM) | relative viability ([2]; first compound 2.53 µM) | relative viability ([2]; first compound 8 µM) | relative viability ([2]; first compound 0.8 µM)
1 | NCI-H1650 | 0.269 | 0.212 | 0.191 | 0.171 | 0.299 | 0.336 | 0.267 | 0.21 | 0.686 | 0.521 | 0.219 | 0.645 | 0.441 | 1.12 | 0.939 | 1.32 | 0.987 | –
2 | NCI-H2023 | 1.05 | 1.21 | 1.05 | 0.97 | 0.674 | 0.646 | 0.626 | 0.611 | 0.536 | 0.579 | 0.559 | 0.495 | 0.459 | 0.811 | 0.958 | 1.03 | 0.773 | 1.02
3 | LOU-NH91 | 0.533 | 0.469 | 0.445 | 0.535 | 0.551 | 0.551 | 0.639 | 0.584 | 0.788 | 0.768 | – | 0.824 | 0.763 | 0.858 | 0.946 | 0.958 | 0.924 | 0.571
4 | NCI-H3122 | 1.06 | 1.13 | 1.01 | 1.06 | 0.882 | 0.761 | 0.969 | 0.861 | 0.242 | 0.299 | 0.202 | 0.242 | 0.247 | 0.887 | 0.951 | 0.922 | 0.887 | 0.979
5 | LCLC-97TM1 | 0.331 | 0.721 | 0.814 | 0.631 | 0.877 | 0.848 | 1.09 | 0.815 | 0.179 | 0.202 | 0.184 | 0.193 | 0.187 | 0.927 | 0.821 | 0.999 | 0.868 | 1.02
6 | NCI-H650 | 0.83 | – | 0.77 | 0.98 | 0.462 | 0.449 | 0.414 | 0.464 | 0.859 | 1.06 | 0.875 | 1.03 | 0.994 | 0.966 | 1.03 | 1.07 | 0.962 | 1.05
7 | PC-14 | 0.973 | 0.953 | 1.02 | 0.881 | 0.224 | 0.258 | 0.263 | 0.24 | 0.648 | 0.701 | 0.842 | 0.718 | 0.558 | 0.912 | 0.944 | 0.95 | 0.792 | 0.896
8 | H3255 | 0.755 | 1.09 | 0.92 | 1.03 | 0.285 | 0.331 | 0.325 | 0.348 | 0.492 | 0.593 | 0.483 | 0.587 | 0.49 | 0.92 | 0.881 | 0.797 | 0.792 | 0.897
9 | NCI-H1437 | 0.643 | 0.562 | 0.527 | 0.46 | 0.377 | 0.385 | 0.367 | 0.531 | 0.472 | 0.521 | 0.496 | 0.428 | 0.45 | 1.21 | 1.2 | 1.23 | 1.11 | 1.19
10 | LU99A | 1.21 | 1.33 | 1.09 | 1.03 | 0.52 | 0.756 | 0.594 | 0.663 | 0.509 | 0.44 | 0.519 | 0.504 | 0.508 | 0.795 | 0.782 | 0.767 | 0.749 | 0.78
11 | HCC-827 | 1.11 | 1.06 | 1.03 | 1.1 | 0.266 | 0.357 | 0.316 | 0.344 | 0.499 | 0.473 | 0.572 | 0.537 | 0.505 | 0.907 | 1.07 | 0.989 | 0.91 | –
12 | HCC-366 | 1.32 | 1.59 | 1.12 | 1.08 | 0.629 | 1.12 | 0.673 | 0.706 | 0.264 | 0.36 | 0.325 | 0.344 | 0.287 | 0.89 | 0.939 | 0.9 | 0.867 | 0.975
13 | BEN | 0.826 | 1.04 | 0.748 | 0.849 | 0.302 | 0.407 | 0.303 | 0.386 | 1.01 | 0.92 | 0.96 | 1.26 | 1.08 | 0.629 | 0.935 | 0.567 | 0.697 | 0.689
14 | NCI-H2347 | 1.09 | 1.11 | 0.848 | 1.23 | 0.268 | 0.351 | 0.296 | 0.2 | 0.248 | 0.281 | 0.251 | 0.284 | 0.282 | 1.1 | 0.778 | 0.721 | 0.993 | 0.865
15 | 201T | 1.12 | 1.23 | 1.14 | 1.15 | 0.561 | 0.661 | 0.579 | 0.615 | 0.719 | 0.692 | – | 0.733 | 0.695 | 1.05 | 1.04 | 1.13 | 1.13 | –
16 | NCI-H596 | 1.06 | 1.01 | 0.948 | 1.29 | 0.585 | 0.59 | 0.566 | 0.641 | 0.858 | 0.759 | 0.842 | 0.753 | 0.765 | 0.792 | – | 1.02 | 0.872 | 0.846
17 | NCI-H838 | 0.992 | 0.727 | 0.842 | 0.685 | 0.314 | 0.284 | 0.262 | 0.333 | 0.501 | 0.328 | 0.464 | 0.559 | 0.529 | 1.05 | 0.981 | 0.981 | 0.943 | 1.17
18 | HCC-15 | 1.16 | 1.15 | 1.08 | 1.22 | 0.637 | 0.799 | 0.66 | 0.65 | 0.338 | 0.363 | 0.401 | 0.362 | 0.351 | 0.948 | 1.04 | 0.998 | 0.981 | 1.11
19 | LCLC-103H | 1.12 | 1.12 | 1.07 | 1.25 | 0.499 | 0.462 | 0.549 | 0.586 | 0.679 | 0.708 | 0.662 | 0.653 | 0.679 | 0.704 | 0.744 | 0.627 | 0.71 | 0.717
20 | NCI-H460 | 1.35 | 0.78 | 1.03 | 1.3 | 0.509 | 0.762 | 0.556 | 0.605 | 0.103 | 0.0737 | 0.0752 | 0.127 | 0.129 | 1.05 | 1.1 | 1.05 | 0.996 | 1.03
21 | EPLC-272H | 0.76 | 0.923 | 0.957 | 0.923 | 0.34 | 0.322 | 0.315 | 0.398 | 0.246 | 0.273 | 0.27 | 0.333 | 0.298 | 0.688 | 0.469 | 0.845 | 0.669 | 0.73
